# Experimental data reported in patent US11912668B2, “GCN2 and perk kinase inhibitors and methods of use thereof” (Deciphera Pharmaceuticals, LLC, priority 2020, dated 2024).
# Assays:
# [1] = tested on: CCRF-CEM leukemia cells; assay: CCRF-CEM ASNase cell proliferation assay, phenotypic assay for cellular inhibition of GCN2; type: cell-based; conditions: Homo sapiens; ASNase treated CCRF-CEM cells, 1 mU/mL ASNase, 72 h
# Description: CCRF-CEM leukemia cells (catalog #CCL-116) were obtained from the American Type Culture Collect (ATTC, Manassas, VA). Cells were grown in RPMI-1640 medium supplemented with 10% heat-inactivated fetal bovine serum (Invitrogen, Carlsbad, CA) and 1% Penicillin/Streptomycin/L-Glutamine at 37° C., 5% CO2, and 95% humidity. Cells were expanded until reaching one million cells per mL at which time they are subcultured or harvested for assay use. Ten thousand cells per well in 200 μL RPMI-1640 supplemented with 10% heat-inactivated fetal bovine serum and 1% Penicillin/Streptomycin were dispensed into a 96-well black clear bottom plate. A serial dilution of test compound and 1 mU/mL ASNase was added in triplicate and plates were incubated for 72 h at 37° C., 5% CO2, and 95% humidity. At the end of the incubation, 40 μL of a […] solution of resazurin (Sigma, St. Louis, MO) in PBS was added to each well of the plate and plates were incubated for an additional 6 h at 37° C., 5% CO2, and 95% humidity. Plates were read on a Synergy2 or equivalent reader (Biotek, Winooski VT) using an excitation of 540 nm and an emission of 600 nm. Data was analyzed using GraphPad Prism software (GraphPad, San Diego, CA) to calculate IC50 values.
# [2] = tested on: ATF4 in CCRF-CEM leukemia cells (PERK); assay: CCRF-CEM TG ATF4 ELISA, phenotypic assay for cellular inhibition of PERK preactivated by thapsigargin; type: cell-based; conditions: Homo sapiens; Thapsigargin (1 μM) stimulated CCRF-CEM cells
# Description: CCRF-CEM leukemia cells (catalog #CCL-116) were obtained from the American Type Culture Collection (ATTC, Manassas, VA). Briefly, cells were grown in RPMI-1640 medium supplemented with 10% heat-inactivated fetal bovine serum (Invitrogen, Carlsbad, CA) and 1% Penicillin/Streptomycin/L-Glutamine at 37° C., 5% CO2, and 95% humidity. Cells were expanded until reaching one million cells per mL at which time they were subcultured or harvested for assay use. One million five hundred thousand cells per well in 1 mL complete growth medium were dispensed into 12-well plates and incubated overnight. A serial dilution of test compound was added and cells were incubated at 37° C., 5% CO2, and 95% for three hours, then 1 μM thapsigargin was added and cells were incubated for an additional hour at 37° C., 5% CO2, and 95%. Cells were lysed then ATF4 levels were measured using an ELISA assay (Proteintech, Rosemont, IL). Absorbance was measured at 450 nm and 544 nM using a Synergy2 or equivalent reader (Biotek, Winooski VT). Data was analyzed using PRISM software (Graphpad, San Diego, CA) to calculate IC50 values.
# [3] = molecular target: PERK kinase (Homo sapiens (Human), UniProt Q9NZJ5); assay: Biochemical assay for PERK (coupled pyruvate kinase/lactate dehydrogenase assay); conditions: 1 mM ATP, rate from 2-3 h time frame
# Sequence of PERK kinase (Q9NZJ5 other isoform, or with tags, fused parts or gaps): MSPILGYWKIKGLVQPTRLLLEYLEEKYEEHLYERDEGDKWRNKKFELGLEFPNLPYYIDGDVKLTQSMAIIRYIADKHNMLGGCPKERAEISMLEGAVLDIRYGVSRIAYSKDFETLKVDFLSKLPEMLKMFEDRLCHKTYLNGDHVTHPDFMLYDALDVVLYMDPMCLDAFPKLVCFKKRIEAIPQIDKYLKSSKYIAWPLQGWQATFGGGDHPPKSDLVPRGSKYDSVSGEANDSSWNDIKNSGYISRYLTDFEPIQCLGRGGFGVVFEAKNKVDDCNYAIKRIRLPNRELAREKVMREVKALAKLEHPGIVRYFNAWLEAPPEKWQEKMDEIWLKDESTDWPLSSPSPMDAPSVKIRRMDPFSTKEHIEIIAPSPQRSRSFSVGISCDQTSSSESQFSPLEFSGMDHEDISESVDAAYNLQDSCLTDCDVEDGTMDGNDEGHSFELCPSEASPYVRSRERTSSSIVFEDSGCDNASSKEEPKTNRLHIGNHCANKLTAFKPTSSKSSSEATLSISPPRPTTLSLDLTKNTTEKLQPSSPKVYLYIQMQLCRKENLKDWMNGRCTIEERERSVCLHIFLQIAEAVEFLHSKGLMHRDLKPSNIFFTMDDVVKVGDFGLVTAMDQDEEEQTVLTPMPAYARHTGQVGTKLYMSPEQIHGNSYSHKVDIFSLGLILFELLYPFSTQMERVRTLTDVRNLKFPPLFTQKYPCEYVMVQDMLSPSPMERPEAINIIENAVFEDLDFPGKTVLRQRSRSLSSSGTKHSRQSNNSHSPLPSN
# Description: Activity of PERK kinase was determined spectroscopically using a coupled pyruvate kinase/lactate dehydrogenase assay that continuously monitors the ATP hydrolysis-dependent oxidation of NADH (e.g., Schindler et al. Science (2000) 289: 1938-1942). Assays were conducted in 384-well plates (100 μL final volume) using 10 nM PERK (from Beryllium), 0.25 mg/mL Myelin Basic Protein substrate, 1.5 units pyruvate kinase, 2.1 units lactate dehydrogenase, 1 mM phosphoenol pyruvate, 0.28 mM NADH and 1 mM ATP in assay buffer (100 mM Tris, pH 7.5, 15 mM MgCl2, 0.5 mM DTT, 0.004% (w/v) BSA, and 0.004% Triton X-100). Inhibition of PERK was measured by adding serial diluted test compound (final assay concentration of 1% DMSO). A decrease in absorption at 340 nm was monitored continuously for 6 hours at 30° C. on a multi-mode microplate reader (BioTek). The reaction rate was calculated using the 2-3 h time frame. The reaction rate at each concentration of compound was converted to percent inhibition using controls (i.e. reaction with no test compound and reaction with a known inhibitor) and IC50 values were calculated using software routines in Prism (GraphPad software).
# [4] = molecular target: GCN2 kinase (Homo sapiens (Human), UniProt Q9P2K8); assay: Biochemical assay for GCN2 (TR-FRET kinase activity assay); conditions: 1 mM ATP, 3-hour incubation
# Sequence of GCN2 kinase (Q9P2K8 whole entry): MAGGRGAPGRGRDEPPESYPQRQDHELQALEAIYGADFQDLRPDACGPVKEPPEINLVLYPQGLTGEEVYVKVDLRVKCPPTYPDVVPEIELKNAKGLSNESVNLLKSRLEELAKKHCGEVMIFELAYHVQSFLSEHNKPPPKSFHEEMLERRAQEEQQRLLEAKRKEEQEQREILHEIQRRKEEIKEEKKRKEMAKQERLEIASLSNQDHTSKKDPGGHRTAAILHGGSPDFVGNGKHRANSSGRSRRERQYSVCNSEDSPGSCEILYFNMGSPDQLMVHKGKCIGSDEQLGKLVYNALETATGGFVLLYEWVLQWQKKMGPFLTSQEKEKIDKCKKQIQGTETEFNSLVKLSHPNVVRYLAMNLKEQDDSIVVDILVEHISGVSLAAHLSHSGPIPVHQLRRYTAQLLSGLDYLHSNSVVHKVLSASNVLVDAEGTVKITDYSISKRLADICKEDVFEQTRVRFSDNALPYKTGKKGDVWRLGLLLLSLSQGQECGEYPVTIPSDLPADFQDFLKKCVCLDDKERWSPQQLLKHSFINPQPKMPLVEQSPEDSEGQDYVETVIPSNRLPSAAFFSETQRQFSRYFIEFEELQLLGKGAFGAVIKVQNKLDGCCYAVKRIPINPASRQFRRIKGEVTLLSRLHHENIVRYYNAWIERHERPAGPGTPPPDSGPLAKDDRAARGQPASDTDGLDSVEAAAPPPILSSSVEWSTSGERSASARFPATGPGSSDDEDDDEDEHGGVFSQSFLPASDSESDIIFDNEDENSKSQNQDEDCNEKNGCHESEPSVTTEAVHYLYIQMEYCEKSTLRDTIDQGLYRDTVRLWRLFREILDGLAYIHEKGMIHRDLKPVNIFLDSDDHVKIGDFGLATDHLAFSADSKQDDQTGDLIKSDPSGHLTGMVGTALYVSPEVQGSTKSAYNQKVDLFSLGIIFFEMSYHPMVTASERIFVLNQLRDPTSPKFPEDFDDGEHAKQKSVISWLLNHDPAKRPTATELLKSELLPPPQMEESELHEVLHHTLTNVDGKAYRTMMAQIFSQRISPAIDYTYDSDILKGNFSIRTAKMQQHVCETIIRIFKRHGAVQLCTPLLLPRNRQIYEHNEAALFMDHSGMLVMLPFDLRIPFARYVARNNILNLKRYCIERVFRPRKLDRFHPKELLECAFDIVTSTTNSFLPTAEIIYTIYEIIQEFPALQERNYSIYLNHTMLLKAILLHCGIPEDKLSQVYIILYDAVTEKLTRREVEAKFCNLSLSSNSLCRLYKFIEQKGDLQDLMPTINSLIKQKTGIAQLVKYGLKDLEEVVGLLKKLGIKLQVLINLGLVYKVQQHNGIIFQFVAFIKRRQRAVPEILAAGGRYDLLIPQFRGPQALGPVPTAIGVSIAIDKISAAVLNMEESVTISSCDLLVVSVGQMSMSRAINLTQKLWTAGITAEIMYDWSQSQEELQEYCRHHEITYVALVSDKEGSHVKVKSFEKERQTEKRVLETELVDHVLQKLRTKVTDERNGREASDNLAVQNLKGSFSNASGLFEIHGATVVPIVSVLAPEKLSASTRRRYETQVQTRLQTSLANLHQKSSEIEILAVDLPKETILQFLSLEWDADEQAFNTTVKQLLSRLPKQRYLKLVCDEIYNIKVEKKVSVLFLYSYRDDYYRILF
# Description: Activity of GCN2 kinase was determined using a TR-FRET kinase activity assay (e.g. Riddle et al. Analytical Biochemistry (2006) 356(1) 108-116). Assays were conducted in 384-well plates (13 μL assay volume) using 2 nM GCN2 (Carna Biosciences), 130 nM GFP-EIf2α (Invitrogen), 0.2 mg/mL E. coli tRNA (sigma) and 1 mM ATP in kinase buffer (Invitrogen). Inhibition of GCN2 was measured by adding serial diluted test compound (final assay concentration of 0.5% DMSO) followed by a 3-hour incubation. Tb-peIF2α (pSer52) antibody (Invitrogen) (2 nM final assay concentration) in kinase buffer containing ETDA (final assay concentration of 20 mM) was added. After a 60 min incubation at room temperature, TR-FRET was monitored using an excitation wavelength of 340 nm and emission wavelengths of 490 nm and 520 nm. The emission ratio (520/490) at each compound concentration of was converted to percent inhibition using controls (i.e. reaction with no test compound and reaction with a known inhibitor) and IC50 values were calculated by fitting a four-parameter sigmoidal curve to the data using Prism (GraphPad software).
SMILES,IC50 [1],IC50 [2],IC50 [3],IC50 [4]
CNc1ncc2cc(-c3cccc(NS(=O)(=O)c4cc(Cl)cnc4OC)c3F)c(OC)cc2n1 [Example 159],≤ 100 nM,500 to 1000 nM,≤ 100 nM,≤ 100 nM
CNc1nc2nc(NC(C)=O)ncc2cc1-c1cc(F)cc(NS(=O)(=O)c2cc(Cl)cnc2OC)c1 [Example 164],100 to 500 nM,1000 to 10000 nM,100 to 500 nM,≤ 100 nM
COc1nc2nc(N)ncc2cc1-c1cccc(NS(=O)(=O)c2cc(Cl)cnc2OC)c1F [Example 165],≤ 100 nM,1000 to 10000 nM,≤ 100 nM,≤ 100 nM
CNc1ncc2cc(-c3cc(NS(=O)(=O)c4cc(Cl)cnc4OC)cc(F)c3C)c(NC)nc2n1 [Example 34],,,100 to 500 nM,≤ 100 nM
CNc1ncc2cc(-c3cccc(NS(=O)(=O)c4cc(Cl)cnc4OC4CC4)c3F)c(NC)nc2n1 [Example 154],,,100 to 500 nM,100 to 500 nM
CNc1ncc2cc(-c3cc(NS(=O)(=O)c4cc(Cl)cnc4OC)ccc3Cl)ccc2n1 [Example 69],,,≤ 100 nM,100 to 500 nM
CNc1nc2nc(NC3CCCC3)ncc2cc1-c1cccc(NS(=O)(=O)c2cc(Cl)cnc2OC)c1F [Example 119],,,100 to 500 nM,≤ 100 nM
CNc1ncc2cc(-c3cccc(NS(=O)(=O)c4cc(F)c(Br)cc4F)c3F)ccc2n1 [Example 72],,,100 to 500 nM,100 to 500 nM
CNc1ncc2cc(-c3cc(NS(=O)(=O)c4cc(Cl)cnc4OC)ccc3C(F)(F)F)ccc2n1 [Example 76],,,1000 to 10000 nM,1000 to 10000 nM
CNc1ncc2cc(-c3cccc(NS(=O)(=O)c4cc(Cl)cc(C(N)=O)c4Cl)c3F)c(NC)nc2n1 [Example 112],,,1000 to 10000 nM,1000 to 10000 nM
CNc1ncc2cc(-c3ccc(F)c(NS(=O)(=O)c4cc(Cl)cnc4OC)c3)c(C)nc2n1 [Example 20],,,1000 to 10000 nM,1000 to 10000 nM
CNc1ncc2cc(-c3cc(NS(=O)(=O)c4cc(Cl)cnc4OC)c(C)cc3F)c(C)nc2n1 [Example 21],,,1000 to 10000 nM,1000 to 10000 nM
CNc1ncc2cc(-c3cccc(NS(=O)(=O)c4cc(Cl)cnc4OC)c3F)c(NC3COC3)nc2n1 [Example 98],,,500 to 1000 nM,100 to 500 nM
CNc1ncc2cc(-c3cccc(NS(=O)(=O)c4cc(C#N)ccc4OC)c3F)c(NC)nc2n1 [Example 145],,,500 to 1000 nM,100 to 500 nM
"CNc1cc2nc(C)c(-c3cc(NS(=O)(=O)c4cc(Cl)cnc4OC)c(F)cc3F)cc2cn1 [Example 5, 5-chloro-N-(2,4-difluoro-5-(2-methyl-7-(methylamino)-1,6-naphthyridin-3-yl)phenyl)-2-methoxypyridine-3-sulfonamide]",,,500 to 1000 nM,100 to 500 nM
CNc1ncc2cc(-c3cc(NS(=O)(=O)c4cc(Cl)cc(Cl)c4)c(F)cc3C)c(C)nc2n1 [Example 75],,,100 to 500 nM,500 to 1000 nM
CNc1ncc2cc(-c3cccc(NS(=O)(=O)c4cc(Cl)cc(OC)c4Cl)c3F)ccc2n1 [Example 83],,,≤ 100 nM,100 to 500 nM
CNc1nc2nc(N)ncc2cc1-c1cc(Cl)cc(NS(=O)(=O)c2cc(Cl)cnc2OC)c1 [Example 104],,,1000 to 10000 nM,1000 to 10000 nM
CNc1ncc2cc(-c3cc(F)cc(NS(=O)(=O)c4cc(Cl)cnc4OC)c3)c(NC[C@@H](C)OC)nc2n1 [Example 107],,,1000 to 10000 nM,500 to 1000 nM

SMILES,IC50 [1],IC50 [2],IC50 [3],IC50 [4]
CNc1ncc2cc(-c3cccc(NS(=O)(=O)c4cc(Cl)cnc4OC4COC4)c3F)c(NC)nc2n1 [Example 125],,,500 to 1000 nM,100 to 500 nM
CNc1ncc2cc(-c3cccc(NS(=O)(=O)c4ncccc4OC)c3F)c(NC)nc2n1 [Example 166],,,1000 to 10000 nM,1000 to 10000 nM
CNC(=O)c1cc(Cl)cc(S(=O)(=O)Nc2cccc(-c3cc4cnc(NC)nc4nc3NC)c2F)c1Cl [Example 170],,,1000 to 10000 nM,1000 to 10000 nM
CNc1ncc2cc(-c3cccc(NS(=O)(=O)c4cc(Br)cnc4OC)c3F)c(NC)nc2n1 [Example 169],,,100 to 500 nM,≤ 100 nM
CNc1ncc2cc(-c3cc(Cl)cc(NS(=O)(=O)c4cc(Cl)cnc4OC)c3)c(NC)nc2n1 [Example 94],,,1000 to 10000 nM,500 to 1000 nM
CNc1cnc(OC)c(S(=O)(=O)Nc2cccc(-c3cc4cnc(NC)cc4nc3C)c2F)c1 [Example 162],≤ 100 nM,,100 to 500 nM,≤ 100 nM
CNc1nc2nc(NC3CCC3)ncc2cc1-c1cccc(NS(=O)(=O)c2cc(Cl)cnc2OC)c1F [Example 118],,,100 to 500 nM,≤ 100 nM
CNc1ncc2cc(-c3cc(NS(=O)(=O)c4cc(Cl)cnc4OC)ccc3OC)ccc2n1 [Example 81],,,1000 to 10000 nM,1000 to 10000 nM
CNc1ncc2cc(-c3cccc(NS(=O)(=O)c4ccc(Cl)cc4OC)c3F)c(NC)nc2n1 [Example 161],,,100 to 500 nM,100 to 500 nM
CNc1cc2nc(C)c(-c3cc(NS(=O)(=O)c4cc(Cl)cnc4OC)ccc3C)cc2cn1 [Example 32],,,≤ 100 nM,≤ 100 nM
CNCCNc1nc2nc(NC)ncc2cc1-c1cccc(NS(=O)(=O)c2cc(Cl)cnc2OC)c1F [Example 101],,,1000 to 10000 nM,100 to 500 nM
CNc1cc2nc(C)c(-c3cc(NS(=O)(=O)c4cc(Cl)cnc4OC)c(F)cc3Br)cc2cn1 [Example 18],,,1000 to 10000 nM,500 to 1000 nM
CNc1cc2nc(N)c(-c3cccc(NS(=O)(=O)c4cc(Cl)cc(CO)c4Cl)c3F)cc2cn1 [Example 171],≤ 100 nM,≤ 100 nM,,
CNc1cc2ncc(-c3cc(F)cc(NS(=O)(=O)c4cc(Cl)cnc4OC)c3)cc2cn1 [Example 58],,,1000 to 10000 nM,1000 to 10000 nM
COc1ncc(Cl)cc1S(=O)(=O)Nc1ccc(C)c(-c2ccc3cc(N)ncc3c2)c1 [Example 28],,,100 to 500 nM,1000 to 10000 nM
"CNc1ncc2cc(-c3cc(NS(=O)(=O)c4cccnc4)c(F)cc3C)c(C)nc2n1 [Example 1, N-(2-fluoro-4-methyl-5-(7-methyl-2-(methylamino)pyrido[2,3-d]pyrimidin-6-yl)phenyl)pyridine-3-sulfonamide]",,,1000 to 10000 nM,1000 to 10000 nM
CNc1ncc2cc(-c3cc(F)cc(NS(=O)(=O)c4cc(Cl)cnc4OC)c3)c(OC)nc2n1 [Example 103],,,100 to 500 nM,100 to 500 nM
CNc1ncc2cc(-c3cc(NS(=O)(=O)c4cncc(Cl)c4)c(F)cc3C)c(C)nc2n1 [Example 42],,,1000 to 10000 nM,1000 to 10000 nM
CNc1ncc2cc(-c3cc(NS(=O)(=O)c4cc(Cl)cnc4OC)c(F)cc3C)c(NC)nc2n1 [Example 10],,,1000 to 10000 nM,500 to 1000 nM
